Results as given in patent US8507509B2, “Saturated and insaturated bi- or tricyclic aryloxyacetamine derivatives and their use as fungicides” (Syngenta Crop Protection LLC, priority 2007, dated 2013).

Experiments:
Phytophthora infestans = experiment: whole plant or invertebrate; type: in vivo; settings: in Solanum lycopersicum, foliar, 96 h, read-out: control of fungal infection, Phytophthora infestans
Septoria tritici = Septoria tritici (leaf blotch), liquid culture growth inhibition in nutrient broth; type: cell-based; settings: Zymoseptoria tritici; 200 ppm; PDB broth, 24 C; inhibition of growth determined photometrically after 72 hrs; read-out: control of fungal infection, Septoria tritici
[1] = system: Erysiphe graminis f.sp. tritici; experiment: Erysiphe graminis f.sp. tritici (wheat powdery mildew), wheat leaf segment assay, preventive; type: in vivo; settings: Blumeria graminis, foliar, 96 h; 200 ppm; wheat leaf segments; assessed four days after inoculation; read-out: control of fungal infection, Etysiphe graminis f.sp. tritici
Septoria nodorum = Septoria nodorum (wheat glume blotch), wheat leaf segment assay, preventive; type: in vivo; settings: Parastagonospora nodorum, foliar, 96 h; 200 ppm; wheat leaf segments; assessed four days after inoculation; read-out: control of fungal infection, Septoria nodorum
Plasmopara viticola = Plasmopara viticola (downy mildew of grapevine), grapevine leaf disk assay, preventive; type: in vivo; settings: foliar, 168 h, 200 ppm, grapevine leaf disks, assessed seven days after inoculation, read-out: control of fungal infection, Plasmopara viticola
Pythium ultimum = Pythium ultimum (Damping off), liquid culture growth inhibition in potato dextrose broth; type: cell-based; settings: Globisporangium ultimum; 20 ppm; potato dextrose broth, 24° C.; inhibition of growth determined photometrically after 48 hours; read-out: control of fungal infection, Pythium ultimum

CCC(Oc1cc2cc(Br)cnc2cc1F)C(=O)NC(C)(C)C=NOC (centres unmarked) [Compound No. 154, 2-(3-Bromo-7-fluoro-quinolin-6-yloxy)-N-(2-methoxyimino-1,1-dimethyl-ethyl)-butyramide]
≥ 60%: pest or weed control at 200 ppm (Phytophthora infestans) | inhibition of growth at 200 ppm (Septoria tritici) | pest or weed control at 200 ppm [1] | pest or weed control at 200 ppm (Septoria nodorum) | pest or weed control at 200 ppm (Plasmopara viticola)

CSC(Oc1ccc2ncc(Br)cc2c1)C(=O)NC(C)(C)C=NO (centres unmarked) [Compound No. 19, 2-(3-Bromo-quinolin-6-yloxy)-N-(2-hydroxyimino-1,1-dimethyl-ethyl)-2-methylsulfanyl-acetamide]
≥ 60%: pest or weed control at 200 ppm (Phytophthora infestans) | inhibition of growth at 200 ppm (Septoria tritici) | pest or weed control at 200 ppm [1] | inhibition of growth at 20 ppm (Pythium ultimum) | pest or weed control at 200 ppm (Plasmopara viticola)

C#Cc1cnc2ccc(OC(SC)C(=O)NC(C)(C)C=NOC)cc2c1 (centres unmarked) [Compound No. 38, 2-(3-Ethynyl-quinolin-6-yloxy)-N-(2-methoxyimino-1,1-dimethyl-ethyl)-2-methylsulfanyl-acetamide]
≥ 60%: pest or weed control at 200 ppm (Phytophthora infestans) | inhibition of growth at 200 ppm (Septoria tritici) | pest or weed control at 200 ppm [1] | pest or weed control at 200 ppm (Septoria nodorum) | pest or weed control at 200 ppm (Plasmopara viticola)

CON=CC(C)(C)NC(=O)C(OC)Oc1ccc2ncc(Br)cc2c1 (centres unmarked) [Compound No. 70, 2-(3-Bromo-quinolin-6-yloxy)-2-methoxy-N-(2-methoxyimino-1,1-dimethyl-ethyl)-acetamide]
≥ 60%: pest or weed control at 200 ppm (Phytophthora infestans) | inhibition of growth at 200 ppm (Septoria tritici) | pest or weed control at 200 ppm [1] | inhibition of growth at 20 ppm (Pythium ultimum) | pest or weed control at 200 ppm (Plasmopara viticola)

CSC(Oc1ccc2ncc(Br)cc2c1)C(=O)NC(C)(C)C=NOCC#N (centres unmarked) [Compound No. 140, 2-(3-Bromo-quinolin-6-yloxy)-N-(2-cyanomethoxyimino-1,1-dimethyl-ethyl)-2-methylsulfanyl-acetamide]
≥ 60%: pest or weed control at 200 ppm (Phytophthora infestans) | inhibition of growth at 200 ppm (Septoria tritici) | pest or weed control at 200 ppm [1] | inhibition of growth at 20 ppm (Pythium ultimum) | pest or weed control at 200 ppm (Plasmopara viticola)

CSC(Oc1cc(C)c2ncc(I)cc2c1)C(=O)NC(C)(C)CC=NO (centres unmarked) [Compound No. 41, N-(3-Hydroxyimino-1,1-dimethyl-propyl)-2-(3-iodo-8-methyl-quinolin-6-yloxy)-2-methylsulfanylacetamide]
≥ 60%: pest or weed control at 200 ppm (Phytophthora infestans) | inhibition of growth at 200 ppm (Septoria tritici) | pest or weed control at 200 ppm [1] | inhibition of growth at 20 ppm (Pythium ultimum) | pest or weed control at 200 ppm (Plasmopara viticola)

CSC(Oc1ccc2ncc(Br)cc2c1)C(=O)NC(C)(C)C=NOCC1CCCO1 (centres unmarked) [Compound No. 143, 2-(3-Bromo-quinolin-6-yloxy)-N-[1,1-dimethyl-2-(tetrahydro-furan-2-ylmethoxyimino)-ethyl]-2-methylsulfanyl-acetamide]
≥ 60%: pest or weed control at 200 ppm (Phytophthora infestans) | inhibition of growth at 200 ppm (Septoria tritici) | pest or weed control at 200 ppm [1] | inhibition of growth at 20 ppm (Pythium ultimum) | pest or weed control at 200 ppm (Plasmopara viticola)

CON=CC(C)(C)NC(=O)C(Oc1cc(Br)c2ncc(Br)cc2c1)SC (centres unmarked) [Compound No. 34, 2-(3,8-Dibromo-quinolin-6-yloxy)-N-(2-methoxyimino-1,1-dimethyl-ethyl)-2-methylsulfanyl-acetamide]
≥ 60%: inhibition of growth at 200 ppm (Septoria tritici) | pest or weed control at 200 ppm (Septoria nodorum)

CON=C(Cc1ccccn1)C(C)(C)NC(=O)C(Oc1ccc2ncc(Br)cc2c1)SC (centres unmarked) [Compound No. 127, 2-(3-Bromo-quinolin-6-yloxy)-N-{2-[(E or Z)-methoxyimino]-1,1-dimethyl-3-pyridin-2-yl-propyl}-2-methylsulfanyl-acetamide]
≥ 60%: inhibition of growth at 200 ppm (Septoria tritici) | inhibition of growth at 20 ppm (Pythium ultimum) | pest or weed control at 200 ppm (Plasmopara viticola)

CON=CC(C)(C)NC(=O)C(Oc1cc(C)c2ncc(I)cc2c1)SC (centres unmarked) [Compound No. 44, 2-(3-Iodo-8-methyl-quinolin-6-yloxy)-N-(2-methoxyimino-1,1-dimethyl-ethyl)-2-methylsulfanyl-acetamide]
≥ 60%: inhibition of growth at 200 ppm (Septoria tritici) | pest or weed control at 200 ppm [1] | inhibition of growth at 20 ppm (Pythium ultimum) | pest or weed control at 200 ppm (Plasmopara viticola)

CON=C(Cc1ccsc1)C(C)(C)NC(=O)C(Oc1ccc2ncc(Br)cc2c1)SC (centres unmarked) [Compound No. 124, 2-(3-Bromo-quinolin-6-yloxy)-N-{2-[(E or Z)-methoxyimino]-1,1-dimethyl-3-thiophen-3-yl-propyl}-2-methylsulfanyl-acetamide]
≥ 60%: inhibition of growth at 200 ppm (Septoria tritici) | pest or weed control at 200 ppm (Septoria nodorum)

CCCCON=CC(C)(C)NC(=O)C(Oc1ccc2ncc(Br)cc2c1)SC (centres unmarked) [Compound No. 14, 2-(3-Bromo-quinolin-6-yloxy)-N-(2-butoxyimino-1,1-dimethyl-ethyl)-2-methylsulfanyl-acetamide]
≥ 60%: pest or weed control at 200 ppm (Phytophthora infestans) | inhibition of growth at 20 ppm (Pythium ultimum) | pest or weed control at 200 ppm (Plasmopara viticola)

CCC(Oc1ccc2ncc(Br)cc2c1)C(=O)NC(C)(C)C=NO (centres unmarked) [Compound No. 150, 2-(3-Bromo-quinolin-6-yloxy)-N-(2-hydroxyimino-1,1-dimethyl-ethyl)-butyramide]
≥ 60%: pest or weed control at 200 ppm (Phytophthora infestans) | inhibition of growth at 20 ppm (Pythium ultimum)

CCC(Oc1ccc2ncc(Br)cc2c1)C(=O)NC(C)(C)C=NOCCF (centres unmarked) [Compound No. 151, 2-(3-Bromo-quinolin-6-yloxy)-N-[2-(2-fluoro-ethoxyimino)-1,1-dimethyl-ethyl]-butyramide]
≥ 60%: pest or weed control at 200 ppm (Phytophthora infestans) | inhibition of growth at 200 ppm (Septoria tritici) | pest or weed control at 200 ppm [1] | inhibition of growth at 20 ppm (Pythium ultimum) | pest or weed control at 200 ppm (Plasmopara viticola)

CON=CCC(C)(C)NC(=O)C(Oc1ccc2ncc(I)cc2c1)SC (centres unmarked) [Compound No. 46, 2-(3-Iodo-quinolin-6-yloxy)-N-(3-methoxyimino-1,1-dimethyl-propyl)-2-methylsulfanyl-acetamide]
≥ 60%: pest or weed control at 200 ppm (Phytophthora infestans) | inhibition of growth at 200 ppm (Septoria tritici) | pest or weed control at 200 ppm [1] | pest or weed control at 200 ppm (Septoria nodorum) | pest or weed control at 200 ppm (Plasmopara viticola)

COCC(=O)ON=CCC(C)(C)NC(=O)C(Oc1cc(C)c2ncc(I)cc2c1)SC (centres unmarked) [Compound No. 103, 2-(3-Iodo-8-methyl-quinolin-6-yloxy)-N-(3-methoxyacetoxyimino-1,1-dimethyl-propyl)-2-methylsulfanyl-acetamide]
≥ 60%: inhibition of growth at 200 ppm (Septoria tritici) | pest or weed control at 200 ppm [1] | pest or weed control at 200 ppm (Septoria nodorum) | pest or weed control at 200 ppm (Plasmopara viticola)

C=CCON=CC(C)(C)NC(=O)C(CC)Oc1ccc2ncc(I)cc2c1 (centres unmarked) [Compound No. 4, N-(2-Allyloxyimino-1,1-dimethyl-ethyl)-2-(3-iodo-quinolin-6-yloxy)-butyramide]
≥ 60%: pest or weed control at 200 ppm (Phytophthora infestans) | inhibition of growth at 200 ppm (Septoria tritici) | pest or weed control at 200 ppm [1] | inhibition of growth at 20 ppm (Pythium ultimum) | pest or weed control at 200 ppm (Plasmopara viticola)

CCC(Oc1ccc2ncc(I)cc2c1)C(=O)NC(C)(C)C=NO (centres unmarked) [Compound No. 152, N-(2-Hydroxyimino-1,1-dimethyl-ethyl)-2-(3-iodo-quinolin-6-yloxy)-butyramide]
≥ 60%: pest or weed control at 200 ppm (Phytophthora infestans) | inhibition of growth at 200 ppm (Septoria tritici) | pest or weed control at 200 ppm [1] | inhibition of growth at 20 ppm (Pythium ultimum) | pest or weed control at 200 ppm (Plasmopara viticola)

CSC(Oc1ccc2ncc(Br)cc2c1)C(=O)NC(C)(C)C=NOc1ccccc1 (centres unmarked) [Compound No. 8, 2-(3-Bromo-quinolin-6-yloxy)-N-(1,1-dimethyl-2-phenoxyimino-ethyl)-2-methylsulfanyl-acetamide]
≥ 60%: pest or weed control at 200 ppm (Phytophthora infestans) | inhibition of growth at 200 ppm (Septoria tritici) | inhibition of growth at 20 ppm (Pythium ultimum) | pest or weed control at 200 ppm (Plasmopara viticola)

CCON=CC(C)(C)NC(=O)C(Oc1cc(C)c2ncc(I)cc2c1)SC (centres unmarked) [Compound No. 42, N-(2-Ethoxyimino-1,1-dimethyl-ethyl)-2-(3-iodo-8-methyl-quinolin-6-yloxy)-2-methylsulfanyl-acetamide]
≥ 60%: pest or weed control at 200 ppm (Phytophthora infestans) | pest or weed control at 200 ppm (Septoria nodorum) | pest or weed control at 200 ppm (Plasmopara viticola)

CCON=CC(C)(C)NC(=O)C(Oc1ccc2ncc(I)cc2c1)SC (centres unmarked) [Compound No. 51, N-(2-Ethoxyimino-1,1-dimethyl-ethyl)-2-(3-iodo-quinolin-6-yloxy)-2-methylsulfanyl-acetamide]
≥ 60%: inhibition of growth at 200 ppm (Septoria tritici) | pest or weed control at 200 ppm [1] | inhibition of growth at 20 ppm (Pythium ultimum) | pest or weed control at 200 ppm (Plasmopara viticola)
